Data taken from article PMC12420824, “Discovery of a selective alpha-kinase 1 inhibitor for the rare genetic disease ROSAH syndrome” (Nature Communications, 2025).
Several values for one entry are separate records, joined by “and”; a condition that tells them apart may be missing. Identical values can stand only once.

What was measured:
[1] = biological target: ABL2/ARG (Homo sapiens, UniProt P42684); assay: HotSpot kinase assay; conditions: read-out: % Enzyme Activity (relative to DMSO control), 10 uM
[2] = biological target: c-Src (Homo sapiens, UniProt P12931); assay: HotSpot kinase assay; conditions: read-out: % Enzyme Activity (relative to DMSO control), 10 uM
[3] = biological target: FRK/PTK5 (Homo sapiens, UniProt P42685); assay: HotSpot kinase assay; conditions: read-out: % Enzyme Activity (relative to DMSO control), 10 uM
Excerpt: (§1) Additionally, a 10-dose dilution series of staurosporine and other enzyme-appropriate compounds were included as positive control inhibitors.

[4] = biological target: HPK1/MAP4K1 (Homo sapiens, UniProt Q92918); assay: HotSpot kinase assay; conditions: read-out: % Enzyme Activity (relative to DMSO control), 10 uM
Excerpt: as §1

[5] = biological target: PHKg1 (Homo sapiens, UniProt Q16816); assay: HotSpot kinase assay; conditions: read-out: % Enzyme Activity (relative to DMSO control), 10 uM
Excerpt: as §1

[6] = biological target: MINK/MINK1 (Homo sapiens, UniProt Q8N4C8); assay: HotSpot kinase assay; conditions: read-out: % Enzyme Activity (relative to DMSO control), 10 uM
Excerpt: as §1

[7] = biological target: FGFR1 (Homo sapiens, UniProt P11362); assay: HotSpot kinase assay; conditions: read-out: % Enzyme Activity (relative to DMSO control), 10 uM
Excerpt: as §1

[8] = biological target: TAOK3/JIK (Homo sapiens, UniProt Q9H2K8); assay: HotSpot kinase assay; conditions: read-out: % Enzyme Activity (relative to DMSO control), 10 uM
[9] = biological target: CDK14/cyclin Y (PFTK1) (Homo sapiens, UniProt O94921); assay: HotSpot kinase assay; conditions: read-out: % Enzyme Activity (relative to DMSO control), 10 uM
Excerpt: as §1

[10] = biological target: ARAF (Homo sapiens, UniProt P10398); assay: HotSpot kinase assay; conditions: read-out: % Enzyme Activity (relative to DMSO control), 10 uM
[11] = biological target: STK16 (Homo sapiens, UniProt O75716); assay: biochemical; conditions: read-out: % Enzyme Activity (relative to DMSO control), 10 uM
Excerpt: as §1

[12] = biological target: KDR/VEGFR2 (Homo sapiens, UniProt P35968); assay: HotSpot kinase assay; conditions: read-out: % Enzyme Activity (relative to DMSO control), 10 uM
[13] = biological target: AMPK(A2/B2/G1) (Homo sapiens, UniProt P54646); assay: HotSpot kinase assay; conditions: read-out: % Enzyme Activity (relative to DMSO control), 10 uM
[14] = biological target: PKCzeta (Homo sapiens, UniProt Q05513); assay: HotSpot kinase assay; conditions: read-out: % Enzyme Activity (relative to DMSO control), 10 uM
Excerpt: as §1

[15] = biological target: ALK3/BMPR1A (Homo sapiens, UniProt P36894); assay: HotSpot kinase assay; conditions: read-out: % Enzyme Activity (relative to DMSO control), 10 uM
Excerpt: as §1

[16] = biological target: DMPK2 (Homo sapiens, UniProt Q6DT37); assay: HotSpot kinase assay; conditions: read-out: % Enzyme Activity (relative to DMSO control), 10 uM
Excerpt: as §1

[17] = biological target: STK39/STLK3 (Homo sapiens, UniProt Q9UEW8); assay: HotSpot kinase assay; conditions: read-out: % Enzyme Activity (relative to DMSO control), 10 uM
Excerpt: as §1

[18] = biological target: T1, TAOK2/TAO1 (Homo sapiens, UniProt Q9UL54); assay: HotSpot kinase assay; conditions: for IC50: ATP 10 µM
T1 sequence (Q9UL54 1-1235): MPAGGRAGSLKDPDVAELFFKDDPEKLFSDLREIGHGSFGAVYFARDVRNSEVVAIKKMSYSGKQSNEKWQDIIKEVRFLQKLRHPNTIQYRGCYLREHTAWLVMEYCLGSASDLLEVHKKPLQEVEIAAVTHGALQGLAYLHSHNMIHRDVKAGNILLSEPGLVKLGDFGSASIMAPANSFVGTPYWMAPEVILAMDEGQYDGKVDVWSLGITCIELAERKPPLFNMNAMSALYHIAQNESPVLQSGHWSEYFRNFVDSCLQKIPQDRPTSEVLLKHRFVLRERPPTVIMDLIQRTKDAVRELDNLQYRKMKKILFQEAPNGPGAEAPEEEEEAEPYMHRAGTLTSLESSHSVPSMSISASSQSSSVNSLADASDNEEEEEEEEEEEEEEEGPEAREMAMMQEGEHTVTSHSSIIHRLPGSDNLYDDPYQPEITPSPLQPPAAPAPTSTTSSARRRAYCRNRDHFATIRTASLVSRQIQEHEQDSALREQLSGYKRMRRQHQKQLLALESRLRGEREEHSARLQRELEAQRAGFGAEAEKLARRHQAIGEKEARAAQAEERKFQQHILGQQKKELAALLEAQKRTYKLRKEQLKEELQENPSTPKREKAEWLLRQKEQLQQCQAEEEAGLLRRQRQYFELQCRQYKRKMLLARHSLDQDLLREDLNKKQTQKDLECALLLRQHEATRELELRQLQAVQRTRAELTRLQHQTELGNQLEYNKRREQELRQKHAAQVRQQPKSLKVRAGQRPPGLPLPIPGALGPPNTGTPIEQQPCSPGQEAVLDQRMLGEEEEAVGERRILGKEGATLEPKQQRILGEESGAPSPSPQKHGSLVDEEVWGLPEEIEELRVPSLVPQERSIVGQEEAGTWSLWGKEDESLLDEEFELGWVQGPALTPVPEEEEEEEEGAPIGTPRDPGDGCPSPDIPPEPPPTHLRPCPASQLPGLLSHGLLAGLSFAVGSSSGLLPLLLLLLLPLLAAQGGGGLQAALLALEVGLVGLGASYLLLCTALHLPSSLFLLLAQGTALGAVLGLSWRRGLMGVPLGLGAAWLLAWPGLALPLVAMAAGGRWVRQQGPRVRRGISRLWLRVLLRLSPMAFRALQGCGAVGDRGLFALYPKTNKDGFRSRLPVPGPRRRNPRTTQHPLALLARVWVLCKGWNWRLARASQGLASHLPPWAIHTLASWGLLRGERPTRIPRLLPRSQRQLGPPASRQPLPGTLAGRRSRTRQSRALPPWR
Excerpt: as §1

[19] = biological target: ABL1 (Homo sapiens, UniProt P00519); assay: HotSpot kinase assay; conditions: read-out: % Enzyme Activity (relative to DMSO control), 10 uM
Excerpt: as §1

[20] = biological target: PAK3 (Homo sapiens, UniProt O75914); assay: HotSpot kinase assay; conditions: read-out: % Enzyme Activity (relative to DMSO control), 10 uM
Excerpt: as §1

[21] = test system: hALPK1-KI mice; assay: Retinal astrocyte activation (GFAP); conditions: individual animals
[22] = biological target: TBK1 (Homo sapiens, UniProt Q9UHD2); assay: HotSpot kinase assay; conditions: read-out: % Enzyme Activity (relative to DMSO control), 10 uM
Excerpt: as §1

[23] = biological target: RIPK4 (Homo sapiens, UniProt P57078); assay: HotSpot kinase assay; conditions: read-out: % Enzyme Activity (relative to DMSO control), 10 uM
Excerpt: as §1

Chain of ARAF (P10398 whole entry): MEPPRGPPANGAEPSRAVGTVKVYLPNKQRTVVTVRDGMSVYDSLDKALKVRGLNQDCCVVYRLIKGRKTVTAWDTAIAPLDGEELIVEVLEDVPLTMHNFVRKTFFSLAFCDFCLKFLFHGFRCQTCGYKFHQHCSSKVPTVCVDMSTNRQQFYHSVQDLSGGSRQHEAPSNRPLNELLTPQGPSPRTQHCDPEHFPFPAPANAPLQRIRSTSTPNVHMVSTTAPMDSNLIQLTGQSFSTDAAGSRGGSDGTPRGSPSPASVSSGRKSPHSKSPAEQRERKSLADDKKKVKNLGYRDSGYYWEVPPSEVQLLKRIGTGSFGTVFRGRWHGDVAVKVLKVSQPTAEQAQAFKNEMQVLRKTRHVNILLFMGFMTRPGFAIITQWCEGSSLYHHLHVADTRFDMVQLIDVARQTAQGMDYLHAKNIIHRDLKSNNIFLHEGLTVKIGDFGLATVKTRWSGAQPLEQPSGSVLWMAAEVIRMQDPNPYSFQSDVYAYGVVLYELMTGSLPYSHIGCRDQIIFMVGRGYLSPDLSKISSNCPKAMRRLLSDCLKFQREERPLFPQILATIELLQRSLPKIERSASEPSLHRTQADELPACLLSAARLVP
Chain of AMPK(A2/B2/G1) (P54646 whole entry): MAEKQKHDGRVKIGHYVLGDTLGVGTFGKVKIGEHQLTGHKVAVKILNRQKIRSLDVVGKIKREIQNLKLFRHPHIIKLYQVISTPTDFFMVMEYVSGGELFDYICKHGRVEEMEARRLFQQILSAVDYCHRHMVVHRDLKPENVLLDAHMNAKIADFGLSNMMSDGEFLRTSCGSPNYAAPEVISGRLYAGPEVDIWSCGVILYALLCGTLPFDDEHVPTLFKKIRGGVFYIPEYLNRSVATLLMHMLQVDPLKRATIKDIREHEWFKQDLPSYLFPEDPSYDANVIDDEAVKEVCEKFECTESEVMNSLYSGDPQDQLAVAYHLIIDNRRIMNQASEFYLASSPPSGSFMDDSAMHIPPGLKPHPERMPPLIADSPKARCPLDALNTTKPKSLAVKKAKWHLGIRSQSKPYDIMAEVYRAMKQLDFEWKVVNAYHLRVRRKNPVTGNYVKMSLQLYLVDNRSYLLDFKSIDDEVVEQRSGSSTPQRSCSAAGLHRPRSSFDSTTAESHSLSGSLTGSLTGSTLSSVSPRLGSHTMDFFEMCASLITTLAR
Chain of AMPK(A2/B2/G1) (O43741 whole entry partner): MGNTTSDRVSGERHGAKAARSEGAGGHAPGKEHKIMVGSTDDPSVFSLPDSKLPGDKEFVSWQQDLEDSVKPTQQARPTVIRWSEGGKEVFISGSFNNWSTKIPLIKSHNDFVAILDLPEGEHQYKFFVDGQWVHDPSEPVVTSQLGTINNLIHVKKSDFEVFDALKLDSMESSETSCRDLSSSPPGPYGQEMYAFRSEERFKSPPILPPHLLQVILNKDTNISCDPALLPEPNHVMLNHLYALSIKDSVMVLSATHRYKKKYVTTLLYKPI
Chain of AMPK(A2/B2/G1) (P54619 whole entry partner): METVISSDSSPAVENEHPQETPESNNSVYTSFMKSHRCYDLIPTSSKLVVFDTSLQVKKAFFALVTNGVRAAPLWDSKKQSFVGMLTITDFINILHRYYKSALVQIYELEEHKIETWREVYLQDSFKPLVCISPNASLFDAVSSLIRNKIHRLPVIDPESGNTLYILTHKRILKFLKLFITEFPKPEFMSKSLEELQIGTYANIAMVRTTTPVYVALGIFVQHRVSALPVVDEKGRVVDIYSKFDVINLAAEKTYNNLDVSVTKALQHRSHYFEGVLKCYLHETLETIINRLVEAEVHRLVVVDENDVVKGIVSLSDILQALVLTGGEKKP
Chain of DMPK2 (Q6DT37 whole entry): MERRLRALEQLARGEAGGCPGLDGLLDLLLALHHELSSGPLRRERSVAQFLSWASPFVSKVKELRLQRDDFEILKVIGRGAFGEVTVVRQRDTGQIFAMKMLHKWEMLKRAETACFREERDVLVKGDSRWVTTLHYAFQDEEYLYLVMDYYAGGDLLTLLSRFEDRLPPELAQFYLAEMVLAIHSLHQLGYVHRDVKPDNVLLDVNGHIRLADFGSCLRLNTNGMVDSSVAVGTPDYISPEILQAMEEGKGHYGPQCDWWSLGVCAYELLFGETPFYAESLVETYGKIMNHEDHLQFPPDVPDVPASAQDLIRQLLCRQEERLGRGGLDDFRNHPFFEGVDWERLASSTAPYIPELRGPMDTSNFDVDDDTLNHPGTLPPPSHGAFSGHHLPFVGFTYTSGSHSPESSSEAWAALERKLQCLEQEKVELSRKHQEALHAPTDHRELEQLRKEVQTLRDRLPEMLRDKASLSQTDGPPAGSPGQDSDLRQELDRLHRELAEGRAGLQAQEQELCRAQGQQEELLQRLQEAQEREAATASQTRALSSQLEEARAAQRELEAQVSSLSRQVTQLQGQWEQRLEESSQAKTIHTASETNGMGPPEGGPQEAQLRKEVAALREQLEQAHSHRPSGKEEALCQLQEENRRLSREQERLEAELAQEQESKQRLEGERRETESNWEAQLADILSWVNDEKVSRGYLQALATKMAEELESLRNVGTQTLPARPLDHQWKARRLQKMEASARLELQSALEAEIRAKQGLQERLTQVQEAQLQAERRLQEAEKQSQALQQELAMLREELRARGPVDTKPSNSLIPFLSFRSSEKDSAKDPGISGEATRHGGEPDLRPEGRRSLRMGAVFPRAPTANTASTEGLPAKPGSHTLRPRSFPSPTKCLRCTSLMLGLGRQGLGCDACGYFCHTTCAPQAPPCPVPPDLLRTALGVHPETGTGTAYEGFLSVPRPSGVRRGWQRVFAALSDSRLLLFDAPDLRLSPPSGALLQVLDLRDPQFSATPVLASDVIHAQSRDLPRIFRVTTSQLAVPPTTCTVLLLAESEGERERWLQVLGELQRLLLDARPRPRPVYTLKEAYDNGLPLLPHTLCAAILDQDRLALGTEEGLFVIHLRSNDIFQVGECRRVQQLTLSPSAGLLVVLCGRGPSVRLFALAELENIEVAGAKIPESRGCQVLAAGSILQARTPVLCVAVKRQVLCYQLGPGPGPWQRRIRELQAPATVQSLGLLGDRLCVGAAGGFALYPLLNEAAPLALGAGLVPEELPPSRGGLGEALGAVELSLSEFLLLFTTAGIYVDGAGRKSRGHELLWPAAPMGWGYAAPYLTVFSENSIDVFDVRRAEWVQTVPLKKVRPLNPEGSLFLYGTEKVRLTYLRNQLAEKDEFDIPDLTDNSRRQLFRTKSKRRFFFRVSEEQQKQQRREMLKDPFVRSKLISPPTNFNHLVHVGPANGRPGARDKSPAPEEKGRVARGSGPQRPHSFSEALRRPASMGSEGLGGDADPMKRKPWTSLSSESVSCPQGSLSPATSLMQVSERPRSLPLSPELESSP
Chain of ABL1 (P00519 whole entry): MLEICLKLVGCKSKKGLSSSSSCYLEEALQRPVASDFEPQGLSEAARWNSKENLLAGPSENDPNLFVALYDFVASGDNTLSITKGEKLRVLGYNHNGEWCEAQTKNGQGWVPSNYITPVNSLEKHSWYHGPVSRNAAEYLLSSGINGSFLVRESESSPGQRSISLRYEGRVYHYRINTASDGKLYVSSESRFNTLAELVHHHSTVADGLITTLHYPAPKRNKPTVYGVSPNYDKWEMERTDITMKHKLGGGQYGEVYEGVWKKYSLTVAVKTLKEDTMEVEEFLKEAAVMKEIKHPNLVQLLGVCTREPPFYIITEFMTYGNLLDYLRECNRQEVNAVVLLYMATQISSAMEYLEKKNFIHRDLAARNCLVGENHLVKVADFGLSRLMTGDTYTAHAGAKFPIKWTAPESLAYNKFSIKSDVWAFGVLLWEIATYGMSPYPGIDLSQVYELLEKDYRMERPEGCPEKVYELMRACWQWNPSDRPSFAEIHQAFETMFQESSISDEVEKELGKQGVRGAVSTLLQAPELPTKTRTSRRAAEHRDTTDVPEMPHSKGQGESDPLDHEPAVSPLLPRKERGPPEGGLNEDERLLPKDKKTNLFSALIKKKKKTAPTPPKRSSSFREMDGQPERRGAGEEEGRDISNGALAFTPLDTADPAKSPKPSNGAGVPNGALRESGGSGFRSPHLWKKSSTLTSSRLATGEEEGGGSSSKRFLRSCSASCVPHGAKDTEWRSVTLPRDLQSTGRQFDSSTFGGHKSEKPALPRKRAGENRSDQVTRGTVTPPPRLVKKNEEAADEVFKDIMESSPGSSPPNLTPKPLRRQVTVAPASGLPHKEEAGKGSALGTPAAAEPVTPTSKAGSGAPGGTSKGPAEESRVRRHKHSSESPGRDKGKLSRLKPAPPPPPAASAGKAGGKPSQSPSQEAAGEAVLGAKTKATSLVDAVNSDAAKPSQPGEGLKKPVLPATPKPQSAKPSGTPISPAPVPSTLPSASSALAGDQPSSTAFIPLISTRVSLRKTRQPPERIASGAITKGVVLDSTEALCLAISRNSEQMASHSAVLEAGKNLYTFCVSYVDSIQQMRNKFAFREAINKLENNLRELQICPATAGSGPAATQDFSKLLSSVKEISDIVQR
Chain of PHKg1 (Q16816 whole entry): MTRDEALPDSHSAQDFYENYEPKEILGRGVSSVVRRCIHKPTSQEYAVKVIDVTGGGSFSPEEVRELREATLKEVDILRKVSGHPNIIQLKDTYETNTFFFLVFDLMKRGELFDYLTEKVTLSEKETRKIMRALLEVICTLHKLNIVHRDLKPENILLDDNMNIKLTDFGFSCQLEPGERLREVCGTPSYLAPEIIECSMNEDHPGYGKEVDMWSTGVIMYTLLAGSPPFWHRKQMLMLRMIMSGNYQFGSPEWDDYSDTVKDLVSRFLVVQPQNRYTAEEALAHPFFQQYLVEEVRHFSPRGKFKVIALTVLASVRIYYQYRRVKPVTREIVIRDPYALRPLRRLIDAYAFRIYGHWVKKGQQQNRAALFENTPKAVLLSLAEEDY

C#C[C@@](C)(c1ccc(Cl)cc1)c1csc(NC(=O)c2c(F)cc(N3CCNCC3)cc2F)n1 (stereo in doubt) [DF-003]
remaining activity at 10 µM [1]: 89.2% | remaining activity at 10 µM [2]: 129% | remaining activity at 10 µM [3]: 101% | remaining activity at 10 µM [4]: 83.3% | remaining activity at 10 µM [5]: 92.1% | remaining activity at 10 µM [6]: 98.7% | remaining activity at 10 µM [7]: 68.8% | remaining activity at 10 µM [8]: 21.7% | remaining activity at 10 µM [9]: 98.8% | remaining activity at 10 µM [10]: 92.8% | remaining activity at 10 µM [11]: 109% | remaining activity at 10 µM [12]: 76% | remaining activity at 10 µM [13]: 90.2% | remaining activity at 10 µM [14]: 89.4% | remaining activity at 10 µM [15]: 103% | remaining activity at 10 µM [16]: 74% | remaining activity at 10 µM [17]: 98.7% | IC50 ([18]; DF-003 IC50 (nM), 10-dose): 1290 nM | IC50 ([18]; IC50, 10-dose): 1290 nM | remaining activity at 10 µM ([18]; read-out: % Enzyme Activity (relative to DMSO control), 10 uM): 5.89% | remaining activity at 10 µM [19]: 87.7% | remaining activity at 10 µM [20]: 117% | Length of retina nerve fiber layer with positive GFAP staining (%) ([21]; DF-003 3mpk): 5.89% | Length of retina nerve fiber layer with positive GFAP staining (%) ([21]; DF-003 3mpk, 3 mg/kg): *36.72% and 4.72% and 11.49% and 5.82% and 8.23% and 8.01% | Length of retina nerve fiber layer with positive GFAP staining (%) ([21]; DF-003 5mpk, 5 mg/kg): 0.34% and 3.64% and 11.44% and 5.19% and 4.22% and 29.43% and 8.01% | remaining activity at 10 µM [22]: 95.4% | remaining activity at 10 µM [23]: 48.3%
